Data as given in the CheMixHub drug solubility set.

Test: xn = mol fraction of the nth substance listed, in the solute-free solvent

CCc1cccc2c3c([nH]c12)C(CC)(CC(=O)O)OCC3 (configuration not stated) + CCCO + CCCCCC
solubility (g/100 g solution)
Settings | 278.15 K | 283.15 K | 288.15 K | 293.15 K | 298.15 K | 303.15 K | 308.15 K | 313.15 K | 318.15 K | 323.15 K
x2 = 0.2645 | 3.73 | 4.25 | 4.84 | 5.55 | 6.34 | 7.19 | 8.14 | 9.21 | 10.4 | 11.7
x2 = 0.4889 | 7.29 | 8.31 | 9.43 | 10.8 | 12.2 | 14 | 15.9 | 18.1 | 20.6 | 23.4
x2 = 0.6827 | 10.4 | 11.8 | 13.4 | 15.2 | 17 | 19.4 | 22.2 | 25.3 | 28.6 | 31.9
x2 = 0.8514 | 12.8 | 14.4 | 16.5 | 18.7 | 21.5 | 24.5 | 27.9 | 31.4 | 35.1 | 38.5

Cc1nc(C)c(C)nc1C + CO + CC#N
solubility (g/100 g solution)
Settings | 273.15 K | 278.15 K | 283.15 K | 288.15 K | 293.15 K | 298.15 K | 303.15 K | 308.15 K | 313.15 K
x2 = 0.1 | 12.7 | 15 | 18.1 | 21.4 | 25.1 | 28.9 | 33.9 | 37.6 | 44.6
x2 = 0.2 | 17.3 | 20.5 | 23.4 | 26.7 | 30.8 | 34.9 | 40.1 | 43.5 | 50.5
x2 = 0.3 | 21.2 | 24.5 | 28.2 | 31.8 | 36.5 | 40.2 | 46 | 49.2 | 55.7
x2 = 0.4 | 25.6 | 28.9 | 32.5 | 36.4 | 41 | 44.3 | 50 | 53.8 | 60.4
x2 = 0.5 | 28.6 | 32 | 36.6 | 39.9 | 45.1 | 48.2 | 53.4 | 57.3 | 63.5
x2 = 0.6 | 31.3 | 34.5 | 39.2 | 42.7 | 47.6 | 51.5 | 56.2 | 60.5 | 67.4
x2 = 0.7 | 33.6 | 36.1 | 40.8 | 44.6 | 49.4 | 53.8 | 59 | 63.1 | 70
x2 = 0.8 | 34.6 | 37.3 | 42.2 | 45.7 | 50.8 | 54.8 | 61.3 | 64.9 | 71.2
x2 = 0.9 | 35 | 37.6 | 42.7 | 45.6 | 51 | 54.9 | 61.9 | 65.3 | 70.7

CCc1cccc2c3c([nH]c12)C(CC)(CC(=O)O)OCC3 (configuration not stated) + CC(C)=O + CCCCCC
solubility (g/100 g solution)
Settings | 278.15 K | 283.15 K | 288.15 K | 293.15 K | 298.15 K | 303.15 K | 308.15 K | 313.15 K | 318.15 K | 323.15 K
x2 = 0.2707 | 4.23 | 4.59 | 4.94 | 5.31 | 5.68 | 6.06 | 6.49 | 6.82 | 7.19 | 7.56
x2 = 0.4972 | 13.3 | 14.4 | 15.4 | 16.4 | 17.8 | 19 | 19.9 | 20.9 | 22 | 23
x2 = 0.69 | 22.1 | 23.7 | 25.3 | 26.8 | 28.7 | 31 | 32.8 | 34.7 | 36.7 | 38.4
x2 = 0.8558 | 20.2 | 21.8 | 23.3 | 24.9 | 26.6 | 28.4 | 29.9 | 31.4 | 33.3 | 34.8

CC(C)Oc1ccc2c(=O)c(-c3ccccc3)coc2c1 + CN1CCCC1=O + CCO
solubility (g/100 g solution)
Settings | 278.15 K | 283.15 K | 288.15 K | 293.15 K | 298.15 K | 303.15 K | 308.15 K | 313.15 K | 318.15 K | 323.15 K
x2 = 0.1038 | 1.5 | 1.87 | 2.26 | 2.85 | 3.5 | 4.39 | 5.46 | 6.91 | 8.81 | 10.8
x2 = 0.2359 | 2.85 | 3.39 | 4.07 | 4.91 | 6.03 | 7.33 | 8.92 | 11 | 13.1 | 15.9
x2 = 0.41 | 5.57 | 6.67 | 7.63 | 9.21 | 10.9 | 12.9 | 15.3 | 17.8 | 21 | 24.9
x2 = 0.6471 | 9.68 | 11 | 12.7 | 14.6 | 16.8 | 19.3 | 22.1 | 25.1 | 28.4 | 32.1

CC(C)Oc1ccc2c(=O)c(-c3ccccc3)coc2c1 + CC(=O)N(C)C + CCO
solubility (g/100 g solution)
Settings | 278.15 K | 283.15 K | 288.15 K | 293.15 K | 298.15 K | 303.15 K | 308.15 K | 313.15 K | 318.15 K | 323.15 K
x2 = 0.1146 | 1.53 | 1.91 | 2.45 | 3.3 | 4.13 | 5.36 | 7.01 | 8.71 | 11 | 14
x2 = 0.2681 | 2.21 | 2.72 | 3.46 | 4.21 | 5.26 | 6.49 | 8.02 | 9.92 | 12.2 | 15.1
x2 = 0.4379 | 4.02 | 4.85 | 5.82 | 7.08 | 8.67 | 10.2 | 12.4 | 14.5 | 17.7 | 21.8
x2 = 0.6771 | 6.41 | 8.04 | 9.6 | 11.1 | 13 | 15.4 | 18 | 21.2 | 25 | 28.9

CC(C)Oc1ccc2c(=O)c(-c3ccccc3)coc2c1 + CN(C)C=O + CCO
solubility (g/100 g solution)
Settings | 278.15 K | 283.15 K | 288.15 K | 293.15 K | 298.15 K | 303.15 K | 308.15 K | 313.15 K | 318.15 K | 323.15 K
x2 = 0.1358 | 1.29 | 1.64 | 2.07 | 2.55 | 3.28 | 4.15 | 5.33 | 6.87 | 8.61 | 11
x2 = 0.2956 | 2.42 | 3 | 3.68 | 4.58 | 5.6 | 6.95 | 8.67 | 10.9 | 13.3 | 16.5
x2 = 0.4859 | 3.8 | 4.83 | 5.92 | 7.22 | 8.72 | 10.4 | 12.9 | 15.3 | 18.8 | 22.7
x2 = 0.716 | 5.06 | 6.49 | 7.97 | 9.74 | 11.7 | 14.2 | 17.1 | 20.4 | 24 | 28.5

CCc1cccc2c3c([nH]c12)C(CC)(CC(=O)O)OCC3 (configuration not stated) + CCCCOC(C)=O + CCCCCC
solubility (g/100 g solution)
Settings | 278.15 K | 283.15 K | 288.15 K | 293.15 K | 298.15 K | 303.15 K | 308.15 K | 313.15 K | 318.15 K | 323.15 K
x2 = 0.1568 | 0.52 | 0.667 | 0.805 | 0.936 | 1.08 | 1.23 | 1.41 | 1.62 | 1.86 | 2.07
x2 = 0.3309 | 3.1 | 3.48 | 3.93 | 4.43 | 5 | 5.64 | 6.39 | 7.21 | 8.15 | 9.12
x2 = 0.5268 | 4.5 | 5.13 | 5.79 | 6.5 | 7.27 | 8.13 | 9.13 | 10.2 | 11.5 | 12.9
x2 = 0.7478 | 7.51 | 8.4 | 9.35 | 10.4 | 11.5 | 12.8 | 14.2 | 15.8 | 17.5 | 19.4

N#CC(c1ccc(Cl)cc1)c1c(Cl)cc(-n2ncc(=O)[nH]c2=O)cc1Cl (configuration not stated) + CN(C)C=O + CCO
solubility (g/100 g solution)
Settings | 283.15 K | 288.15 K | 293.15 K | 298.15 K | 303.15 K | 308.15 K | 313.15 K | 318.15 K | 323.15 K
x2 = 0.1361 | 3.28 | 3.86 | 4.52 | 5.25 | 6.05 | 6.91 | 7.87 | 8.89 | 9.99
x2 = 0.2959 | 5.7 | 6.56 | 7.46 | 8.51 | 9.59 | 10.8 | 12 | 13.4 | 14.7
x2 = 0.486 | 8.24 | 9.37 | 10.4 | 11.7 | 12.9 | 14.2 | 15.7 | 17.2 | 18.8
x2 = 0.716 | 10.6 | 11.8 | 12.9 | 14.3 | 15.6 | 17 | 18.5 | 20 | 21.6

Cl.c1ccc2c(CC3=NCCN3)cccc2c1 + CO + CCO
solubility (g/100 g solution)
Settings | 278.15 K | 283.15 K | 288.15 K | 293.15 K | 298.15 K | 303.15 K | 308.15 K | 313.15 K | 318.15 K | 323.15 K
x2 = 0.1377 | 2.14 | 2.61 | 3.11 | 3.69 | 4.45 | 5.14 | 5.88 | 6.74 | 7.61 | 8.5
x2 = 0.2644 | 3.05 | 3.54 | 3.96 | 4.7 | 5.27 | 6.18 | 7.06 | 8.2 | 9.28 | 10.6
x2 = 0.3812 | 3.8 | 4.39 | 5.05 | 5.74 | 6.63 | 7.58 | 8.73 | 9.78 | 11.4 | 12.7
x2 = 0.4894 | 4.21 | 4.86 | 5.45 | 6.36 | 7.17 | 8 | 9.31 | 10.4 | 11.9 | 13.2
x2 = 0.5898 | 4.47 | 5.59 | 6.2 | 7.21 | 8.02 | 9.29 | 10.6 | 11.7 | 13.2 | 14.6
x2 = 0.6832 | 4.86 | 5.8 | 6.77 | 7.78 | 8.82 | 10 | 11.3 | 12.8 | 14.4 | 16.1
x2 = 0.7704 | 5.03 | 6.14 | 7.26 | 8.67 | 10.3 | 11.5 | 13.1 | 14.6 | 16.2 | 18.3
x2 = 0.8519 | 5.48 | 6.63 | 7.79 | 9.34 | 11 | 13.3 | 14.8 | 16.8 | 18.5 | 20.5
x2 = 0.9283 | 5.66 | 6.83 | 8.15 | 9.82 | 11.7 | 14 | 15.7 | 18 | 19.9 | 21.9

O=CC(O)C(O)C(O)CO (configuration not stated) + CO + ClCCl
solubility (g/100 g solution)
Settings | x2 = 0.1 | x2 = 0.2 | x2 = 0.3 | x2 = 0.4 | x2 = 0.5 | x2 = 0.6 | x2 = 0.7 | x2 = 0.8 | x2 = 0.9
283.15 K | 0.097 | 0.564 | 1.19 | 1.64 | 2.52 | 3.8 | 4.89 | 6.81 | 9.89
288.15 K | 0.17 | 0.673 | 1.33 | 1.81 | 2.86 | 4.63 | 5.87 | 8.86 | 12.6
293.15 K | 0.204 | 0.696 | 1.5 | 2.4 | 3.52 | 5.59 | 7.17 | 10.8 | 15.8
298.15 K | 0.281 | 0.774 | 1.78 | 2.73 | 4.3 | 6.87 | 9.1 | 13.4 | 20.1
303.15 K | 0.286 | 0.82 | 2.17 | 3.22 | 5.29 | 9.18 | 12.7 | 18.3 | 25.3
